Assay results published in a melting point compilation (Tetko et al.; mined from patent text by program, amines drawn as free bases though some values may be those of a salt).

| SMILES | melting point |
| --- | --- |
| CCC1(C)CC(S(=O)(=O)Cc2c(F)cccc2F)=NO1 (configuration not stated) | 64 to 65 °C |
| Cc1cc(-c2ccc(C(F)(F)F)c(C)c2)cc(-c2cccc(-c3cccc(S(N)(=O)=O)c3)n2)n1 | > 250 °C |
| CC(=O)N(C(=O)c1ccccc1O)C(C)C(=O)O (racemic) | 118 to 120 °C |
| CCCCc1oc2ccc(C(=O)OC)cc2c1C(=O)c1ccc(OCCCNCC(C)(C)C)cc1 | 61 to 63 °C |
| O=c1[nH]nc(-c2ccc(Cl)cc2)o1 | 125 to 127 °C |
| CC(C)Cn1c(CO)nc2c(N)nc3cccnc3c21 | 226 to 228 °C |
| COC(=O)COc1ccc(CC(C)NCC(O)c2cccc(C(F)(F)F)c2)cc1C (configuration not stated) | 75 to 79 °C |
| CCOC(=O)c1cn(C)c2cnc3c(F)c(Cl)c(N4CCN(c5ccc(C)c(F)c5)CC4)cc3c2c1=O | 350 °C |
| O=C1c2ccc([N+](=O)[O-])cc2CC1Br (configuration not stated) | 88.5 to 90.5 °C |
| CCn1cc(C(=O)O)c2ccc(Cl)cc21 | 225 to 227 °C |
| COc1cc(C(=O)NS(C)(=O)=O)cc(OC)c1-c1ccc(C[C@H](NC(=O)c2c(Cl)cccc2Cl)C(=O)O)cc1 | 277 to 278 °C |
| CCCc1nc2c(N)nc3cc(OCCN4CCCC4=O)ccc3c2s1 | 163 to 166 °C |
| Nc1c(-c2ccc(Oc3ccccc3)cc2)nc2ccc(C(F)(F)F)cc2c1C(=O)O | 220 to 225 °C |
| COC1=C(OC)C(=O)C2=C(CC(CCCCCCCC(N)=O)(C(N)=O)C2)C1=O | 140 to 143 °C |
| CN(CC1OCCO1)c1nccc(Oc2ccc(NC(=O)c3cc(F)cc(N4CCOCC4)c3)c3ccccc23)n1 | 111 to 112 °C |
| Cc1nnc(S)n1-c1ccccc1F | 119 to 120 °C |
| NS(=O)(=O)c1ccc(Cl)c(NC(=O)c2cnn3c(C(F)F)cc(-c4ccc(C(F)(F)F)cc4)nc23)c1 | 286 °C |
| O=C(CC1CCCCCC1)c1cn(CCO)c2cccc(Cl)c12 | 113 to 119 °C |
| COC(=O)c1cc(S(=O)(=O)c2ccc(C)cc2)cc2c1OC(c1ccc(OC)cc1)(c1ccc(OC)cc1)O2 | 79 to 82 °C |
| Cc1cc2c(=O)c(C(=O)O)cn(-c3cc(N)c(F)cc3F)c2cc1F | > 280 °C |
| CCCCOc1nsnc1OC[C@@H]1CCCN1 | 99 to 100 °C |

| SMILES | melting point |
| --- | --- |
| COc1ccc(S(=O)(=O)C2(C(=O)NO)CCN(Cc3ccc(F)cc3)CC2)cc1 | 176 to 178 °C |
| COC(=O)c1ccc(C(O)c2cc3cc(Cl)ccc3n2S(=O)(=O)c2ccc(C(C)C)cc2)cc1 (configuration not stated) | 71 °C |
| CN(C)C(=O)N(N=Cc1ccc(OC(F)(F)C(F)F)cc1)C(=N)NN=Cc1ccc(OC(F)(F)C(F)F)cc1 | 142 to 144 °C |
| CC(C)(C)C(Cl)=CC(=O)O | 146 to 148 °C |
| C#CCn1c(Br)c(Br)c(Br)c1C#N | 95 to 105 °C |
| CC(C)(C)OC(=O)NC(NC(=O)OC(C)(C)C)Nc1ccc(CCc2csc(NC(=O)c3ccccc3)n2)cc1 | 143 to 144 °C |
| N#Cc1ccccc1NC(=O)c1snnc1C1CC1 | 124 °C |
| Cc1cncn1-c1cc(C#N)cc(C(F)(F)F)c1 | 99 to 101 °C |
| NC(=O)OC(=O)C(Cl)(Cl)Cl | 183 to 184 °C |
| CC(=O)C(C#N)c1cccc(Br)c1 (configuration not stated) | 96 to 100 °C |
| Nc1nc(C2CC2)nc(C(Cl)(Cl)Cl)n1 | 111 to 114 °C |
| N#Cc1cncc(-c2ccc(OC[C@@H](N)Cc3ccccc3)cc2)c1Nc1cccc2[nH]ccc12 | 83 to 85 °C |
| CCCCCCCCCCCCCCCCc1ccccc1O | 54 to 55 °C |
| Cn1cc(-c2cccc(-n3ncc4cc(C(C)(C)C)cc(F)c4c3=O)c2CO)cc(Nc2ccc(C(C)(C)C(=O)O)cn2)c1=O | 218 to 220 °C |
| FC(F)(c1ccccc1)c1nc(-c2ccncc2)cs1 | 54.5 to 55.5 °C |
| N#CC(CCN1CCC(C(=O)ON2C(=O)c3ccccc3C2=O)(c2ccccc2)CC1)(c1ccccc1)c1ccccc1 | 156 to 158 °C |
| COc1cc(C=C2CC(=O)OC2=O)cc(OC)c1OC | 184 to 187 °C |
| CC1(C)C(=O)N(c2ccc(C#N)c(C(F)(F)F)c2)C(=O)N1C(=O)c1ccccc1 | 179 to 180 °C |
| CCCCCCCCCCCCCCCCNc1ccc(C#N)cc1 | 63 to 64 °C |
| COc1ccc(-n2nc(Sc3ccc(C(C)(C)C)cc3)c(C)c(C#N)c2=O)cc1 | 186 to 188 °C |
| COc1ccc(C2(O)c3cc(NC(=O)CC(C)(C)C)c(C)c(C)c3OC2(C)C)c(OC)c1 (configuration not stated) | 150 to 151 °C |

| SMILES | melting point |
| --- | --- |
| COc1cc(C)c(CCCCCCCCCCCCCCCCCCCCCCO)c(O)c1OC | 78 to 81 °C |
| CC(C)Nc1cccnc1N1CCN(C(=O)c2ccc(C(=O)N3CCN(C)CC3)cc2)CC1 | 158 to 160 °C |
| CCOC(=O)NC(=S)C1=C(N2CCOCC2)CCC1 | 114 to 118 °C |
| CCC(CC)(CC(=O)Nc1cccc(/C=C/c2nc(C3CCC3)cs2)c1)C(=O)O | 170 to 172 °C |
| O=[N+]([O-])c1cnn(-c2c(Cl)cc(Cl)cc2Cl)c1O | 106 to 115 °C |
| CC(C)C(=CC(CNC(=O)c1cccnc1)=NO)C(C)[N+](=O)[O-] (configuration not stated) | 132 to 135 °C |
| CS(=O)(=O)c1ccc(Oc2ccc(C#N)cc2)nc1 | 195 to 196 °C |
| CC(c1cccc2c1Sc1c(O[Si](c3ccccc3)(c3ccccc3)C(C)(C)C)cccc1N2C)N1C(=O)c2ccccc2C1=O (configuration not stated) | 182 to 184 °C |
| CC(C)Nc1nc(Nc2cccc(NS(C)(=O)=O)c2)nc2[nH]cnc12 | 161 to 165 °C |
| Fc1ccc(-c2ncn(C3CCCCO3)c2-c2ccc(F)cc2)cc1 (configuration not stated) | 149 to 152 °C |
| O=S1(=O)NC2CCCN2c2ccc(Oc3cccc(-c4nnn[nH]4)c3)cc21 (configuration not stated) | 266 to 272 °C |
| O=c1cc(-c2ccncn2)nc2n1CCCCC2C1CC1 (racemic) | 139 to 140 °C |
| COc1ccc(-c2cnc(N)c(Sc3ccc(C)cc3)n2)cc1 | 107 to 110 °C |
| O=c1c2ccccc2ncn1-c1nnn[nH]1 | 259 to 260 °C |
| Cc1ccnc(C(=O)c2[nH]c3ccc(Cl)cc3c2CC(=O)O)c1 | 230 to 231 °C |
| Cc1ccc(NC(=O)C(C)(C)C)c(-c2cncc(Cl)n2)c1 | 80 to 83 °C |
| COC(=O)c1ccc(OCCON=C(C)c2ccc(C(C)(C)C)cc2)cc1O | 65.4 to 66.8 °C |
| COc1cc(C2NC(C(=O)O)CS2)ccc1OCC(=O)NCCO[N+](=O)[O-] (configuration not stated) | 151 to 152 °C |
| COc1cc(C(=O)O)ccc1OCCCO | 162 °C |
| N#Cc1ccc(-c2ccc(F)cc2)nc1 | 149 °C |

Next, values leading:

| melting point | SMILES |
| --- | --- |
| 101 to 102 °C | CN(O)CCc1ccc2c(c1)C(=O)c1ccccc1CO2 |
| 95 to 96 °C | COC(=O)c1ccc2occ(-c3ccc(SC)cc3)c2c1 |
| 141 to 143 °C | Cc1cc(C)cc(-c2nc(N)sc2-c2ccnc(OCc3ccccc3)c2)c1 |
| 154 to 156 °C | CCCN(c1cccc(-c2ccnc3c([N+](=O)[O-])cnn23)c1)S(=O)(=O)c1ccccc1 |
| 147 to 148 °C | Cc1ccc(-c2ccc3c(c2)C=C(C(=O)Nc2ccc(CNCc4ccccc4)cc2)CCO3)cc1 |
| 229 to 230 °C | Cc1oc(-c2ccccc2)nc1COc1ccc(C(=O)c2ccc(O)cc2OCC(=O)O)cc1 |
| 146 to 149 °C | CCOC1Nc2c(OC(C)=O)cccc2C(=O)N2CCCC12 (configuration not stated) |
| 122 °C | CN(C(=O)C(F)(F)F)c1cnn(-c2cccc(C(F)(F)F)c2)c(=O)c1-c1cccc(C(F)(F)F)c1 |
| 103 to 104 °C | Nc1ccccc1N1CCN(CC(O)COc2cccc3c2CCCC3)CC1 (configuration not stated) |
| 244 to 245 °C | O=C1NCCOc2c1sc1ccccc21 |
| 147 °C | CCC(C)(C)c1ccc(S(=O)(=O)N2C(=O)C(NCCN3CCOCC3)(c3ccccc3Cl)c3cc(Cl)ccc32)cc1 (configuration not stated) |
| 137 °C | O[C@]1(c2ccccc2)CCS[C@H]2CN(Cc3ccccc3)C[C@H]21 (racemic) |
| 210 to 212 °C | CN(C(=O)C(F)(F)F)N1CCc2ccccc2C(Oc2ccc(C(F)(F)F)cc2)C1 (configuration not stated) |
| 91 to 92 °C | COC(=O)c1ccc(CNC(=O)OCc2ccccc2)cc1O |
| 124 to 126 °C | N#Cc1cccc(CN2CCC(c3ccc(NC(=O)c4ccccc4-c4ccc(C(F)(F)F)cc4)cc3)CC2)c1 |
| 291 to 294 °C | CCc1nn(C)c2[nH]c(=O)c3ccccc3c12 |
| 103 to 104 °C | COC(=O)C(=O)c1ccc(N(C=O)CCOc2ccc3ccccc3c2)cc1 |
| 174 to 175 °C | CCCC(=O)Nc1ccc(-c2ccncc2)cc1 |

| melting point | SMILES |
| --- | --- |
| 164 to 166 °C | CS(=O)(=O)c1ccc(-c2cnn(-c3ccc(F)c(Cl)c3)c(=O)c2Cc2ccccc2)cc1 |
| 187 to 188 °C | ON=Cc1cccc2cccc(N3CCCC3)c12 |
| 73 to 75 °C | COc1ccc2c(O)cccc2c1 |
| 129 to 130 °C | COc1cc2c(cc1OCc1ccccc1)CCC(=O)N2Cc1cc(OC)c(OC)c(OC)c1 |
| 125 to 126 °C | CCN(CC)C(=O)COc1ccn2nc(-c3ccccc3)c(-c3ccc(=O)n(C(C)C)n3)c2c1 |
| 73.8 to 77.9 °C | CCc1nc2c(OCc3ccc(OC)cc3)cccc2[nH]1 |
| 216 to 222 °C | Nc1cc(=O)nc(Nc2ccccc2)n1-c1ccc(Cl)cc1 |
| 39 to 42 °C | CCC1c2cccn2-c2ccc(F)cc2N1C(=O)c1ccc(OC)cc1 (configuration not stated) |
| 125 to 128 °C | COc1ccccc1-c1ccn2ncc(Br)c2n1 |
| 55 to 56 °C | CC(=O)OCCc1ccc(-c2csc(=O)s2)cc1 |
| 166 to 169 °C | CCCCOc1ccc(Nc2c([N+](=O)[O-])ccc(Cl)c2C(=O)O)cc1 |
| 125 to 126 °C | CCOC(=O)CCn1c(-c2ccc(F)cc2)cc2ccccc2c1=O |
| 216 to 218 °C | NS(=O)(=O)c1cc(C(=O)O)cc(NCCc2ccncc2)c1-c1ccccc1 |
| 316 to 323 °C | Cc1c(-c2ccc(C3CCCCC3)cc2)nc2ccc(F)cc2c1C(=O)O |
| 167 to 168 °C | N#Cc1ccc(NC(=O)c2cccc(OCc3ccc(C(F)(F)F)cc3)c2)cc1 |
| 70 to 72.5 °C | COC1(C)CCc2c(C)c(OCc3ccccc3)c(C)c(C)c2O1 (configuration not stated) |
| 120 to 121 °C | O=C(Nc1cnc(-c2ccccc2)nc1Cl)OCc1ccccc1 |
